For 21 compounds, IC50 and inhibition results are on record in patent US7504517B2, “Kv1.5 potassium channel inhibitors” (Wyeth, priority 2006, dated 2009).

Data set [1] deals with L-type calcium channels. As to the kind of experiment: FLIPR L-Type Calcium Channel Assay. The data set is classed as cell-based, murine. Particulars: HL-1 cells expressing endogenous L-type calcium channels; calcium influx after 20 mM KCl; read-out: L-type Ca^2+ IC50. On the procedure:
50 μL per well test compounds are added to the plates and further incubated for 15 min. in a 5% CO2 37° C. incubator. All final solutions contain the anion exchange inhibitor, probenecid (2.5 mM). The 96-well plates are then placed in the center position of the FLIPR 1 (Fluorometric Imaging Plate Reader, Molecular Devices Corporation). Cell monolayers in each well are simultaneously illuminated at 488 nm with an Argon ion laser, and fluorescence emission is monitored using a 510-570 nm bandpass filter and a cooled CCD camera. To depolarize the plasma membrane and activate L-type calcium channels, 50 μL per well of 20 mM KCl (final concentration) are dispensed simultaneously to all 96 wells using the FLIPR's automatic 96-well pipettor. Fluorescence measurements are captured for 5 min. following KCl addition. Calcium influx, expressed as % control, is calculated for each concentration of test compound and concentration-response curves and IC50 values are generated using GraphPad Prism 4.0.

In data set [2] the target is HERG (Homo sapiens, UniProt Q12809). Nature of the data set: HERG Patch Clamp EP. Particulars: for inhibition at 10 µM: human, HEK cells stably overexpressing HERG. In general terms: Patch clamp records ionic current or voltage across a cell membrane.
Chain of HERG (Q12809 whole entry): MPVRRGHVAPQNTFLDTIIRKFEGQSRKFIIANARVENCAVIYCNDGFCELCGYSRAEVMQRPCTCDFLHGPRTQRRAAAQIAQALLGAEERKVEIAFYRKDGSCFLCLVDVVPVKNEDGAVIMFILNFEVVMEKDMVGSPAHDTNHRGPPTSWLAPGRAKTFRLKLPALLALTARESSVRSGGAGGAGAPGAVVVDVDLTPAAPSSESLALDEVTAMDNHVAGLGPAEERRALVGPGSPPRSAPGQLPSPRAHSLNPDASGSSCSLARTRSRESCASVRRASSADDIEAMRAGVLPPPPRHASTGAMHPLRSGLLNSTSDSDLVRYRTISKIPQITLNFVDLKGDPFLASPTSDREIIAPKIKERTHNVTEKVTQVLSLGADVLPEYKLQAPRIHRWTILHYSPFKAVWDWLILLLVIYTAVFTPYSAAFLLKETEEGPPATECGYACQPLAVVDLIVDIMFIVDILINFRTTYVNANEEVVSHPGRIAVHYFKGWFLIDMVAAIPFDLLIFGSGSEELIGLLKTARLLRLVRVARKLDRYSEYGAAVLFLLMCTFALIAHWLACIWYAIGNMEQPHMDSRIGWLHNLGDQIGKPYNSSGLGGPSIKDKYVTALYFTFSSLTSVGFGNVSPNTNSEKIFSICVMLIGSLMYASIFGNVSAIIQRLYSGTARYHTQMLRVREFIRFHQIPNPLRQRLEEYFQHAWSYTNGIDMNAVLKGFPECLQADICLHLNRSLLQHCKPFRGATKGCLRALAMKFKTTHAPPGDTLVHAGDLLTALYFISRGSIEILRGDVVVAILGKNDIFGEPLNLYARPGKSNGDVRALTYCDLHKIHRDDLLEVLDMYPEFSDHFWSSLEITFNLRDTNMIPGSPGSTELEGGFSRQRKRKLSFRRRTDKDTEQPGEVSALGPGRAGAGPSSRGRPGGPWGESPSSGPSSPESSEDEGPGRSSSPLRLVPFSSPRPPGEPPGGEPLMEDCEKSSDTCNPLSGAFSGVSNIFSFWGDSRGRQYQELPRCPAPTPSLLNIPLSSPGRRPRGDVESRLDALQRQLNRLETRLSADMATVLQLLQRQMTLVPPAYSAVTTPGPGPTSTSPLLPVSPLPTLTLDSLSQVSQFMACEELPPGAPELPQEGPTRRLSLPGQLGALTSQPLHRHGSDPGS
Description: HERG currents are recorded by the whole cell mode of patch clamp electrophysiology as described by Hamill et al.^3 HERG is stably over expressed in HEK cells. Microelectrodes are pulled from borosilicate glass (TW150) and heat polished (tip resistance, 1.5 to 3 megaohms). The external solution is standard Tyrodes solution. The internal (microelectrode) solution contained: 110 mM KCl, 5 mM K2ATP, 5 mM K4BAPTA, 1 mM MgCl2 and 10 mM HEPES, adjusted to pH 7.2 with KOH. […] Compounds are prepared as 10-20 mM DMSO stocks and diluted to appropriate test concentrations. […] Inhibition of HERG is measured at the peak of the tail currents and expressed relative to controls. Initial HERG activity is estimated by single point determinations run at 10 μM. Concentration response curves are generated for appropriate compounds utilizing at least four concentrations and an n=3. Curve fitting and IC50 estimating are done using Graphpad software (Ver. 4). • 1.
The target in data set [3] is T1, Kv1.5 (Homo sapiens, UniProt P22460).
T1 construct: expressed in transfected cells; host or cells: HEK or LTK- cells
T1 sequence (P22460 whole entry): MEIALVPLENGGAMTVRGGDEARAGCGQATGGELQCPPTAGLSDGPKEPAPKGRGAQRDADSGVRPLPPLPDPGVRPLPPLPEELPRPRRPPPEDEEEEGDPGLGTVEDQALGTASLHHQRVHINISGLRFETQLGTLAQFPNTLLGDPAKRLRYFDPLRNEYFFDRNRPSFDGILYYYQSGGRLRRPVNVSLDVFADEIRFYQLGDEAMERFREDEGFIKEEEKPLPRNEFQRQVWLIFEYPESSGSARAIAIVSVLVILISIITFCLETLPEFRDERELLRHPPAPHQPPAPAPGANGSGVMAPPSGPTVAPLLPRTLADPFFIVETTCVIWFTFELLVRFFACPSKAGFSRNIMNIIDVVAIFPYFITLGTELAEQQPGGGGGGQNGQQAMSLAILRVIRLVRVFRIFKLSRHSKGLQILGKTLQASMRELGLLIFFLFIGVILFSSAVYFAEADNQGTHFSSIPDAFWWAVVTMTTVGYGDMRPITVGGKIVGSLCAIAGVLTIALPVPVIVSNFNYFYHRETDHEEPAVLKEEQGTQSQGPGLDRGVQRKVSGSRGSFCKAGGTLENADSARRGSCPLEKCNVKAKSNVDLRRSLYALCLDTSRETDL
As to the kind of experiment: Kv1.5 Patch Clamp EP. The format is cell-based. Particulars: whole cell patch clamp; for inhibition at 1 µM: single point, Kv1.5 stably over expressed in HEK or LTK- cells; for IC50: HEK or LTK- cells, at least four concentrations, n=3. How it is done:
The external solution is standard Tyrodes solution. […] Inhibition was measured at the end of the 1 second pulses and expressed relative to controls. Initial Kv1.5 inhibition is estimated by single point determinations done at 1 μM.

Each structure is given as a SMILES string.

As usually defined, the IC50 is the midpoint of a concentration-inhibition curve. For orientation: inhibition means the change of the read-out against control, counted positive when it falls. Read a low inhibition as little suppression. With `COc1ccc(CCN2C(=O)N(NS(=O)(=O)CF)CC2c2ccc3c(c2)OCCO3)cc1` (stereo not shown) [Compound 37, 1-(Fluoromethylsulfonylamino)-3-[2-(4-methoxyphenyl)ethyl]-4-[(2,3dihydro-benzo[b][1,4]dioxin-6-yl)]-2-imidazolidinone], the IC50 in data set [1] came to 30 µM. In data set [2], this compound registered an inhibition at 10 µM of 6%. The inhibition at 1 µM in data set [3] came to 87%.
On to `COc1ccc(CCN2C(=O)N(NS(=O)(=O)CC(F)(F)F)CC2c2ccc(C(C)(C)C)cc2)cc1` (stereo not shown) [Compound 38, 1-(2,2,2-Trifluoroethanesulfonylamino)-4-[4-(tert-butyl)phenyl]-3-[2-(4-methoxyphenyl)ethyl]-2-imidazolidinone], for which the IC50 in data set [1] was 5.6 µM. In addition, in data set [2], testing at 10 µM gave an inhibition of 56%. Moreover, testing at 1 µM in data set [3] gave an inhibition of 85%.
Take `COc1ccc(CCN2C(=O)N(NS(=O)(=O)CC#N)CC2c2ccc3c(c2)OCCO3)cc1` (stereo not shown) [Compound 40, 1-(Cyanomethylsulfonylamino)-3-[2-(4-methoxyphenyl)ethyl]-4-[(2,3-dihydro-benzo[b][1,4]dioxin-6-yl)]-2-imidazolidinone]: the IC50 in data set [1] worked out at 30 µM. This compound also displayed an inhibition at 10 µM in data set [2] of 1%. This compound displayed an inhibition at 1 µM in data set [3] of 70%.
As to `COc1ccc(CCN2C(=O)N(NS(=O)(=O)Cc3cccnc3)CC2c2ccc(OC(F)F)cc2)cc1` (stereo not shown) [Compound 42, 1-[(N-3-Pyridinylmethylsulfonyl)amino]-3-[2-(4-methoxyphenyl)ethyl]-4-(4-difluoromethoxyphenyl)-2-imidazolidinone], in data set [1], the IC50 amounted to 20 µM. Besides, in data set [2], the inhibition at 10 µM was 90%. Further, in data set [3], the inhibition at 1 µM amounted to 91% and the IC50 was 0.418 µM.
As to `COc1ccc(CCN2C(=O)N(NS(=O)(=O)Cc3ccccc3)CC2c2ccc(C)c(C)c2)cc1` (stereo not shown) [Compound 43, 1-[(Phenylmethyl)sulfonylamino]-3-[2-(4-methoxyphenyl)ethyl]-4-(3,4-dimethyl-phenyl)-2-imidazolidinone], the IC50 in data set [1] is 4.3 µM. Further, 10 µM produced 2% inhibition in data set [2]. In data set [3], the inhibition at 1 µM was 93%.
On the same counts, the results for `COc1ccc(CCCN2C(=O)N(NS(N)(=O)=O)CC2c2ccc(OC)cc2)cc1` (stereo not shown) [Compound 44, 1-(Sulfamoylamino)-3-[3-(4-methoxyphenyl)propyl]-4-[(4-methoxy)phenyl]-2-imidazolidinone] are 25 µM, 22% and 60%.
`CS(=O)(=O)NN1CC(c2ccc(C3CC3)cc2)N(CCCc2ccccc2)C1=O` (stereo not shown) [Compound 45, 1-(Methylsulfonylamino)-3-(3-phenylpropyl)-4-(4-cyclopropylphenyl)-2-imidazolidinone]: the IC50 in data set [1] turned out to be 16 µM. The compound further showed an inhibition at 10 µM in data set [2] of 55%. The compound further displayed an inhibition at 1 µM in data set [3] of 83%.
As for `CC(C)(C)c1ccc(C2CN(NS(C)(=O)=O)C(=O)N2CCCc2ccccc2)cc1` (stereo not shown) [Compound 47, 1-(Methylsulfonylamino)-3-(3-phenylpropyl)-4-[4-(tert-butyl)phenyl]-2-imidazolidinone], the IC50 in data set [1] was 26 µM. Besides, the inhibition at 10 µM in data set [2] worked out at 65%. This compound also gave an inhibition at 1 µM in data set [3] of 73%.
On to `COc1ccc(CCCN2C(=O)N(NS(C)(=O)=O)CC2c2ccc(C3CC3)cc2)cc1` (stereo not shown) [Compound 48, 1-(Methylsulfonylamino)-3-[3-(4-methoxyphenyl)propyl]-4-[(4-cyclopropyl)-phenyl]-2-imidazolidinone], for which the figures for the IC50 in data set [1], in data set [2] and in data set [3] were 9 µM, 3.6 µM and 0.231 µM, respectively. Moreover, testing at 10 µM in data set [2] gave an inhibition of 70%. 1 µM produced 96% inhibition in data set [3].
As to `COc1ccc(CCCN2C(=O)N(NS(C)(=O)=O)CC2c2ccc(OC)cc2)cc1` (stereo not shown) [Compound 49, 1-(Methylsulfonylamino)-3-[3-(4-methoxyphenyl)propyl]-4-[(4-methoxy)-phenyl]-2-imidazolidinone], the IC50 in data set [1] was found to be 23 µM. Moreover, in data set [2], the midpoint of inhibition, the IC50, lay at 11.4 µM and the inhibition at 10 µM stood at 25%. Also, in data set [3], 1 µM produced 76% inhibition and the IC50 came to 0.466 µM.
In the case of `COc1ccc(CCN2C(=O)N(NS(=O)(=O)CC(=O)NC3CC3)CC2c2ccc(C3CC3)cc2)cc1` (stereo not shown) [Compound 51, 1-[[2-(Cyclopropylamino)-2-oxoethyl]sulfonylamino]-3-[2-(4-methoxyphenyl)ethyl]-4-(4-cyclopropylphenyl)-2-imidazolidinone], the IC50 in data set [1] stood at 21 µM. The compound further returned an inhibition at 10 µM in data set [2] of 20%. The inhibition at 1 µM in data set [3] is 87%.
As to `COc1ccc(CCN2C(=O)N(NS(=O)(=O)CC(N)=O)CC2c2ccc(C3CC3)cc2)cc1` (stereo not shown) [Compound 52, 1-[(2-Amino-2-oxoethyl)sulfonylamino]-3-[2-(4-methoxyphenyl)ethyl]-4-(4-cyclopropylphenyl)-2-imidazolidinone], the IC50 in data set [1] was 16 µM. Further, in data set [2], 10 µM produced 29% inhibition. This compound gave an inhibition at 1 µM in data set [3] of 80%.
Regarding `COc1ccc(CCN2C(=O)N(NS(=O)(=O)CC(=O)N(C)C)CC2c2ccc(C3CC3)cc2)cc1` (stereo not shown) [Compound 54, 1-[[2-(Dimethylamino)-2-oxoethyl]sulfonylamino]-3-[2-(4-methoxyphenyl)-ethyl]-4-(4-cyclopropylphenyl)-2-imidazolidinone], the half-maximal inhibitory concentration (IC50) in data set [1] stood at 30 µM. In data set [2], 10 µM produced 46% inhibition. The same compound came in with an inhibition at 1 µM in data set [3] of 80%.
Regarding `COc1ccc(CCN2C(=O)N(NS(=O)(=O)CC(=O)NCC3CC3)CC2c2ccc(OC)cc2)cc1` (stereo not shown) [Compound 57, 1-[[2-[(Cyclopropylmethyl)amino]-2-oxoethyl]sulfonylamino]-3-[2-(4-methoxy-phenyl)ethyl]-4-(4-methoxyphenyl)-2-imidazolidinone], the results for the IC50 in data set [1], in data set [2] and in data set [3] were 30 µM, 12.4 µM and 0.631 µM, respectively. Also, the inhibition at 10 µM in data set [2] came out at 12%. Also, the inhibition at 1 µM in data set [3] turned out to be 66%.
On to `COCCN(CCOC)C(=O)CS(=O)(=O)NN1CC(c2ccc(C3CC3)cc2)N(CCc2ccc(OC)cc2)C1=O` (stereo not shown) [Compound 60, 1-[[2-[(Bis(methoxyethyl)amino)]-2-oxoethyl]sulfonylamino]-3-[2-(4-methoxy-phenyl)ethyl]-4-(4-cyclopropylphenyl)-2-imidazolidinone], for which, in data set [1], the IC50 was 10.6 µM. In data set [2], the IC50 amounted to 7.4 µM and the inhibition at 10 µM came out at 44%. In data set [3], this compound registered an inhibition at 1 µM of 77% and an IC50 of 0.453 µM.
In the case of `COc1ccc(CCN2C(=O)N(NS(=O)(=O)CS(C)(=O)=O)CC2c2ccc(C3CC3)cc2)cc1` (stereo not shown) [Compound 61, 1-[(Methylsulfonylmethyl)sulfonyl]amino-3-[2-(4-methoxyphenyl)ethyl]-4-(4-Cyclopropylphenyl)-2-imidazolidinone], the IC50 in data set [1] stood at 25 µM. The compound further displayed an inhibition at 10 µM in data set [2] of 28%. For the same compound, the inhibition at 1 µM in data set [3] turned out to be 85%.
Turning to `COc1ccc(CCN2C(=O)N(NS(=O)(=O)Cc3ccccc3)CC2c2ccc(OC)cc2)cc1` (stereo not shown) [Compound 63, 1-[(Phenylmethyl)sulfonylamino]-3-[2-(4-methoxyphenyl)ethyl]-4-(4-methoxyphenyl)-2-imidazolidinone], the IC50 in data set [1] was 6.3 µM. Moreover, the inhibition at 10 µM in data set [2] stood at 44%. The compound further displayed an inhibition at 1 µM in data set [3] of 95%.
On the same counts, the results for `COc1ccc(CCN2C(=O)N(NS(=O)(=O)Cc3cccnc3)CC2c2ccc(C3CC3)cc2)cc1` (stereo not shown) [Compound 64, 1-[(Pyridin-3-yl)methanesulfonyl]amino-3-[(4-methoxyphenyl)ethyl]-4-(4-cyclopropylphenyl)-imidazolidin-2-one] are 14 µM, 55% and 96%.
For the compound `COc1ccc(CCN2C(=O)N(NS(=O)(=O)Cc3cccnc3)CC2c2ccc(C)cc2)cc1` (stereo not shown) [Compound 65, 1-[(Pyridin-3-yl)methylsulfonyl]amino-3-[(4-methoxyphenyl)ethyl]-4-(4-methylphenyl)-2-imidazolidinone], the IC50 in data set [1] came to 31 µM. Also, at 10 µM the inhibition in data set [2] was 38%. The compound also showed an inhibition at 1 µM in data set [3] of 88%.
Take `COc1ccc(CCN2C(=O)N(NS(=O)(=O)Cc3cccnc3)CC2c2ccc(OC)cc2)cc1` (stereo not shown) [Compound 66, 1-[(Pyridin-3-yl)methylsulfonyl]amino-3-[2-(4-methoxyphenyl)ethyl]-4-(4-methoxyphenyl)-2-imidazolidinone]: the IC50 in data set [1] is 30 µM; in data set [2], 12.6 µM; in data set [3] it was 0.257 µM. For the same compound, the inhibition at 1 µM in data set [3] is 86%.
In the case of `COc1ccc(CCN2C(=O)N(N(C)S(=O)(=O)Cc3ccccc3)CC2c2ccc(C)c(C)c2)cc1` (stereo not shown) [Compound 67, 1-[(N-methyl-N-benzylsulfonyl)amino]-3-[2-(4-methoxy-phenyl)ethyl]-4-(3,4-dimethylphenyl)-2-imidazolidinone], the IC50 in data set [1] was determined as 8 µM. The compound further gave an inhibition at 10 µM in data set [2] of 22%. Moreover, the inhibition at 1 µM in data set [3] worked out at 90%.
